Laboratory results: patent publication US7629320B2, “Nucleoside derivatives for treating hepatitis C virus infection” (SmithKline Beecham Corporation, priority 2002, dated 2009)

Legend:
HCV = experiment: activity of Example 26 (test not stated; patent concerns anti-hepatitis C activity); conditions: test not specified
[1] = patients treated at currently recommended doses; cited from earlier work

SMILES | activity (stated in words) (HCV) | patients with significant hemolysis [1]
O=P(O)(O)OP(=O)(O)OP(=O)(O)OC[C@H]1O[C@@H](n2cnc3c(NO)ncnc32)[C@H](O)[C@@H]1O [Example 26, 6-Hydroxylamino-9-β-D-ribofuranosylpurine 5′-Triphosphate] | inactive | 
NC(=O)c1ncn([C@@H]2O[C@H](CO)[C@@H](O)[C@H]2O)n1 [Ribavirin, 1-β-D-ribofuranosyl-1H-1,2,-4-triazole-3-carboxamide] |  | 10-20%
